Reference: PMC7897990, “TriTOX: A novel Trichomonas vaginalis assay platform for high-throughput screening of compound libraries” (International Journal for Parasitology: Drugs and Drug …, 2021)
Like-named read-outs stand apart in the source and are kept apart here.

Tests used:
[1] = system: Trichomonas vaginalis G3 trophozoites
[2] = system: nontumorigenic neonatal foreskin fibroblast (NFF) cell line
[3] = parasite screen at 1 µg/mL, replicate 1
[4] = parasite screen at 1 µg/mL, replicate 2
[5] = NFF_NS1 screen at 5 µg/mL, NFF cells
[6] = HTS, parasite screen at 1 µg/mL, replicate 1
[7] = HTS, parasite screen at 1 µg/mL, replicate 2
[8] = NFF fibroblast screen at 5 µg/mL, A = active, I = inactive
[9] = HTS single concentration, parasite screen 1 µg/mL, replicate 1
[10] = HTS single concentration, parasite screen 1 µg/mL, replicate 2
[11] = NFF_NS1 screen 5 µg/mL, single concentration
[12] = HTS, parasite screen at 1 µg/mL, replicate 1, raw absorbance
[13] = HTS, parasite screen at 1 µg/mL, replicate 2, raw absorbance

For `Cc1cc(O)c2c(c1)C(=O)c1c(c(O)cc(O)c1-c1c(O)cc(O)c3c1C(=O)c1cc(C)cc(O)c1C3=O)C2=O` [BIA-S1662], the T.vaginalis_%inb_Rep1 [1, 3] was 9.89%, the T.vaginalis_%inb_Rep2 [1, 4] was 5.90% and the NFF_Activity [2, 5] was “I (otherwise these were reported as inactive (I))”.
`COC(=O)c1cccc2oc(-c3cccc4oc(-c5ccccc5O)nc34)nc12` [UK-1] was tested, and the T.vaginalis_%inb_Rep1 [1, 6] was 10.64%, the T.vaginalis_%inb_Rep2 [1, 7] was 15.36% and the NFF_Activity [2, 8] was “I (otherwise these were reported as inactive (I))”.
For `CC(=O)N[C@H]1CCOC1=O` [BIA-A1493], the T.vaginalis_%inb_Rep1 [1, 9] was 15.89%, the T.vaginalis_%inb_Rep2 [1, 10] was 26.61% and the NFF_Activity [2, 11] was “I (otherwise these were reported as inactive (I))”.
`C=C(C)[C@@H]1CC[C@]2(C(=O)O)CC[C@]3(C)[C@H](CC[C@@H]4[C@@]5(C)CC[C@H](O)C(C)(C)[C@@H]5CC[C@]43C)[C@@H]12` [BIA-B1758] was tested, and the T.vaginalis_%inb_Rep1 [1, 9] was 14.81%, the T.vaginalis_%inb_Rep2 [1, 10] was 7.30% and the NFF_Activity [2, 11] was “I (otherwise these were reported as inactive (I))”.
In the case of `CC1=C[C@H](O/C=C2/C(=O)O[C@@H]3c4ccccc4C[C@H]23)OC1=O` [GR24], the T.vaginalis_%inb_Rep1 [1, 6] is reported as 14.00%, the T.vaginalis_Absorbance_Rep1 [1, 12] is reported as 0.978 and the T.vaginalis_%inb_Rep2 [1, 7] is reported as 4.49%. For the same compound, the T.vaginalis_Absorbance_Rep2 [1, 13] was 0.705 and the NFF_Activity ([2]; NFF_NS1 screen at 5 µg/mL) was “I (otherwise these were reported as inactive (I))”.
With `C=C[C@@](C)(CCC=C(C)C)c1ccc2c3c(c[nH]c13)C[C@@H](CO)NC(=O)[C@H](C(C)C)N2C` [BIA-T1429] the T.vaginalis_%inb_Rep1 [1, 3] was 11.80%, the T.vaginalis_%inb_Rep2 [1, 4] was 16.64% and the NFF_Activity [2, 5] was “I (otherwise these were reported as inactive (I))”.
For `Cc1cc(O)cc2oc(=O)c3c(O)cc(O)cc3c12` [BIA-A1926], the T.vaginalis_%inb_Rep1 [1, 9] was 6.66%, the T.vaginalis_%inb_Rep2 [1, 10] was 9.26% and the NFF_Activity [2, 11] was “I (otherwise these were reported as inactive (I))”.
For `CC[C@H](C)[C@H]1O[C@]2(C=C[C@@H]1C)C[C@@H]1C[C@@H](C/C=C(\C)[C@@H](O[C@H]3C[C@H](OC)[C@@H](O)[C@H](C)O3)[C@@H](C)/C=C/C=C3\CO[C@@H]4[C@H](O)C(C)=C[C@@H](C(=O)O1)[C@]34O)O2` [BIA-A1585], the T.vaginalis_%inb_Rep1 [1, 9] was 14.27%, the T.vaginalis_%inb_Rep2 [1, 10] was 12.58% and the NFF_Activity [2, 11] was “I (otherwise these were reported as inactive (I))”.
`COC1=C(N)C(=O)c2nc(-c3nc(C(=O)O)c(C)c(-c4ccc(OC)c(OC)c4O)c3N)ccc2C1=O` [BIA-S1107] was tested, and the T.vaginalis_%inb_Rep1 [1, 3] was 76.72%, the T.vaginalis_%inb_Rep2 [1, 4] was 90.80% and the NFF_Activity [2, 5] was “A (active (A) compounds having >25% inhibitory activity)”.
`CO[C@H]1C[C@H](O[C@H]2[C@H](C)O[C@@H](O[C@@H]3/C(C)=C/C[C@@H]4C[C@@H](C[C@]5(C=C[C@H](C)[C@@H](C(C)C)O5)O4)OC(=O)[C@@H]4C=C(C)[C@@H](O)[C@H]5OC/C(=C\C=C\[C@@H]3C)[C@]54O)C[C@@H]2OC)O[C@@H](C)[C@H]1NC(C)=O` [Eprinomectin B1b] showed a T.vaginalis_%inb_Rep1 [1] of 14.00%, a T.vaginalis_%inb_Rep2 [1] of 14.75% and a T.vaginalis_Absorbance_Rep1 [1] of 0.969. For the same compound, the T.vaginalis_Absorbance_Rep2 [1] was 0.824 and the NFF_Activity [2] was “I (key: active (A) compounds having >25% inhibitory activity; otherwise these were reported as inactive (I))”.
`CC(=O)OC[C@]12C[C@H](O)C(C)=C[C@H]1O[C@@H]1[C@H](O)[C@@H](OC(C)=O)[C@@]2(C)[C@]12CO2` [Neosolaniol] was tested, and the T.vaginalis_%inb_Rep1 [1] was 8.23%, the T.vaginalis_%inb_Rep2 [1] was 6.22% and the NFF_Activity [2] was “I (key: active (A) compounds having >25% inhibitory activity; otherwise these were reported as inactive (I))”.
With `CNC[C@@H]1CC[C@@H](N)[C@@H](O[C@H]2[C@H](O)[C@@H](O[C@H]3OC[C@](C)(O)[C@H](NC)[C@H]3O)[C@H](N)C[C@@H]2N)O1` [Gentamicin C2b] the T.vaginalis_%inb_Rep1 [1, 6] was 11.00%, the T.vaginalis_Absorbance_Rep1 [1, 12] was 0.919 and the T.vaginalis_%inb_Rep2 [1, 7] was 5.20%. The T.vaginalis_Absorbance_Rep2 [1, 13] was 0.716 and the NFF_Activity ([2]; NFF_NS1 screen at 5 µg/mL) was “I (otherwise these were reported as inactive (I))”.
`O=C(O)c1nccc2c1[nH]c1ccccc12` [BIA-F1943] was tested, and the T.vaginalis_%inb_Rep1 [1, 9] was 8.34%, the T.vaginalis_%inb_Rep2 [1, 10] was 10.54% and the NFF_Activity [2, 11] was “I (otherwise these were reported as inactive (I))”.
`C[C@@H]1CCC[C@@H](O)CCC/C=C/c2cc(O)cc(O)c2C(=O)O1` [Zearalenol, alpha-] was tested, and the T.vaginalis_%inb_Rep1 [1, 6] was 11.90%, the T.vaginalis_%inb_Rep2 [1, 7] was 12.68% and the NFF_Activity [2, 8] was “I (otherwise these were reported as inactive (I))”.
`CCCCCCCCCCCCCCCCCC(=O)N[C@H]1CCOC1=O` [Octadecanoyl-L-homoserine lactone] was tested, and the T.vaginalis_%inb_Rep1 ([1]; HTS replicate 1, parasite screen 1 µg/mL) was 12.02%, the T.vaginalis_%inb_Rep2 ([1]; HTS replicate 2, parasite screen 1 µg/mL) was 13.47% and the NFF_Activity ([2]; NFF fibroblasts, single concentration 5 µg/mL) was “I (otherwise these were reported as inactive (I))”.
